Where a name gives a salt, the structure may show the parent alone.
Legend:
Mcl-1 protein = Mcl-1 protein (Homo sapiens, UniProt Q07820); assay: Inhibition of Mcl-1 by the fluorescence polarisation technique; assay type: binding; settings: fluorescence polarisation test; read-out: IC50 (M) Mcl-LFP
Description: The relative, binding potency of each compound was determined via Fluorescence Polarisation (FP). The method utilised a Fluorescein labelled ligand (Fluorescein-βAla-Ahx-A-REIGAQLRRMADDLNAQY-OH; mw 2,765) which binds to the Mcl-1 protein (such that Mcl-1 corresponds to the UniProtKB® primary accession number: Q07820) leading to an increased anisotropy measured in milli-polarisation (mP) units using a reader. The addition of a compound which binds competitively to the same site as the ligand will result in a greater proportion of unbound ligand in the system indicated by a decrease in mP units.
An 11 point serial dilution of each compound was prepared in DMSO and 2 μl transferred into flat bottomed, low binding, 384-well plate (final DMSO concentration 5%), 38 μl of buffer (10 mM 4-(2-hydroxyethyl)-1-piperazineethanesolfonic acid [HEPES], 150 mM NaCl, 0.05% Tween 20, pH 7.4), containing the Fluorescein labelled ligand (final concentration 1 nM) and Mcl-1 protein (final concentration 5 nM) was then added.
Assay plates were incubated ˜2 hours at room temperature before FP was measured on a […] Synergy2 reader (Ex. 528 nm, Em. 640 nm, Cut off 510 nm) and mP units calculated. The binding of increasing doses of test compound was expressed as a percentage reduction in mP compared to a window established between ‘5% DMSO only’ and ‘100% inhibition’ controls. 11-point dose response curves were plotted with XL-Fit software using a 4-Parameter Logistic Model (Sigmoidal Dose-Response Model) and the inhibitory concentrations that gave a 50% reduction in mP (IC50) were determined.

[1] = tested on: H929 multiple myeloma tumour line; assay: In vitro cytotoxicity (MTT); assay type: cell-based; settings: 48 hours exposure
Description: The cytotoxicity studies were carried out on the H929 multiple myeloma tumour line.
The cells are distributed onto microplates and exposed to the test compound for 48 hours.
The cell viability is then quantified by a colorimetric assay, the Microculture Tetrazolium Assay (Carmichael et al. Cancer Res. 1987, 47, 936-942).

[2] = Homo sapiens, NCI-H929, H929 cells

Chain of Mcl-1 protein (Q07820 whole entry): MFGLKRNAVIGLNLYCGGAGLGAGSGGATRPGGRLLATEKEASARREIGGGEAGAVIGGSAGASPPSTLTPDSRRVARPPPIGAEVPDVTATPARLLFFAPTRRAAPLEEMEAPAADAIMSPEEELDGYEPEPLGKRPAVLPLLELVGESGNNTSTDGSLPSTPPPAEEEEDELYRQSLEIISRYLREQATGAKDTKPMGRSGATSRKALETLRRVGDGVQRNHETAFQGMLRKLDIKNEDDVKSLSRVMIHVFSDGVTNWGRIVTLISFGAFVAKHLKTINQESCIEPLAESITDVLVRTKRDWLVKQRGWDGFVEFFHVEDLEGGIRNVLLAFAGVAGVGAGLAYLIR

Compound	IC50 (Mcl-1 protein) [M]	IC50 ([1]; H929 cells) [nM]	IC50 [1, 2] [nM]
COc1ccccc1-c1nccc(COc2ccccc2CC(Nc2ncnc3sc(-c4ccc(F)cc4)c(-c4ccc(OCCN5CC[N+](C)(COP(=O)([O-])O)CC5)c(Cl)c4C)c23)C(=O)O)n1 [Example 8, N-[(5Sa)-5-{3-chloro-4-[2-(4-{[(hydroxyphosphinato)oxy]methyl}-4-methylpiperazin-4-ium-1-yl)ethoxy]-2-methylphenyl}-6-(4-fluorophenyl)thieno[2,3-d]pyrimidin-4-yl]-2-{[2-(2-methoxyphenyl)pyrimidin-4-yl]methoxy}-D-phenylalanine]	9.48e-10		229
COc1ccccc1-c1nccc(COc2ccccc2CC(Oc2ncnc3sc(-c4ccc(F)cc4)c(-c4ccc(OCCN5CC[N+](C)(Cc6oc(=O)oc6C)CC5)c(Cl)c4C)c23)C(=O)O)n1 [Example 22, 4-[2-(4-{(5Sa)-4-[(1R)-1-carboxy-2-(2-{[2-(2-methoxyphenyl)pyrimidin-4-yl]methoxy}phenyl)ethoxy]-6-(4-fluorophenyl)thieno[2,3-d]pyrimidin-5-yl}-2-chloro-3-methylphenoxy)ethyl]-1-methyl-1-[(5-methyl-2-oxo-1,3-dioxol-4-yl)methyl]piperazin-1-ium trifluoroacetate]	9.48e-10	2.23	
COc1ccccc1-c1nccc(COc2ccccc2CC(Oc2ncnc3sc(-c4ccc(F)cc4)c(-c4ccc(OCCN5CC[N+](C)(COC(C)=O)CC5)c(Cl)c4C)c23)C(=O)O)n1 [Example 17, 1-[(acetyloxy)methyl]-4-[2-(4-{(5Sa)-4-[(1R)-1-carboxy-2-(2-{[2-(2-methoxyphenyl)pyrimidin-4-yl]methoxy}phenyl)ethoxy]-6-(4-fluorophenyl)thieno[2,3-d]pyrimidin-5-yl}-2-chloro-3-methylphenoxy)ethyl]-1-methylpiperazin-1-ium trifluoroacetate]	1.12e-09	2.15	
CCN(CC)C(=O)OC(C)[N+]1(C)CCN(CCOc2ccc(-c3c(-c4ccc(F)cc4)sc4ncnc(O[C@H](Cc5ccccc5OCc5ccnc(-c6ccccc6OC)n5)C(=O)O)c34)c(C)c2Cl)CC1 (stereo partly drawn) [Example 21, 4-[2-(4-{(5Sa)-4-[(1R)-1-carboxy-2-(2-{[2-(2-methoxyphenyl)pyrimidin-4-yl]methoxy}phenyl)ethoxy]-6-(4-fluorophenyl)thieno[2,3-d]pyrimidin-5-yl}-2-chloro-3-methylphenoxy)ethyl]-1-{1-[(diethylcarbamoyl)oxy]ethyl}-1-methylpiperazin-1-ium trifluoroacetate]	1.96e-09	70.4	
4-[2-(4-{(5Sa)-4-[(1R)-1-carboxy-2-(2-{[2-(2-methoxyphenyl)pyrimidin-4-yl]methoxy}phenyl)ethoxy]-6-(4-fluorophenyl)thieno[2,3-d]pyrimidin-5-yl}-2-chloro-3-methylphenoxy)ethyl]-1-{[(diethylcarbamoyl)oxy]methyl}-1-methylpiperazin-1-ium trifluoroacetate [Example 19]	1.2e-09	1640	
COc1ccccc1-c1nccc(COc2ccccc2CC(Oc2ncnc3sc(-c4ccc(F)cc4)c(-c4ccc(OCCN5CC[N+](C)(COP(=O)([O-])OCc6ccccc6)CC5)c(Cl)c4C)c23)C(=O)O)n1 [Example 2, benzyl {4-[2-(4-{(5Sa)-4-[(1R)-1-carboxy-2-(2-{[2-(2-methoxyphenyl)pyrimidin-4-yl]methoxy}phenyl)ethoxy]-6-(4-fluorophenyl)thieno[2,3-d]pyrimidin-5-yl}-2-chloro-3-methylphenoxy)ethyl]-1-methylpiperazin-1-ium-1-yl}methyl phosphate]	9.48e-10		10.9
CCOC(=O)OC[N+]1(C)CCN(CCOc2ccc(-c3c(-c4ccc(F)cc4)sc4ncnc(OC(Cc5ccccc5OCc5ccnc(-c6ccccc6OC)n5)C(=O)O)c34)c(C)c2Cl)CC1 [Example 18, 4-[2-(4-{(5Sa)-4-[(1R)-1-carboxy-2-(2-{[2-(2-methoxyphenyl)pyrimidin-4-yl]methoxy}phenyl)ethoxy]-6-(4-fluorophenyl)thieno[2,3-d]pyrimidin-5-yl}-2-chloro-3-methylphenoxy)ethyl]-1-{[(ethoxycarbonyl)oxy]methyl}-1-methylpiperazin-1-ium]	9.48e-10		1.74

Continued, in another order:

IC50 (Mcl-1 protein) [M]	Compound	IC50 ([1]; H929 cells) [nM]	IC50 [1, 2] [nM]
1.04e-09	COc1ccccc1-c1nccc(COc2ccccc2CC(Oc2ncnc3sc(-c4ccc(F)cc4)c(-c4ccc(OCCN5CC[N+](C)(COC(=O)C(C)(C)C)CC5)c(Cl)c4C)c23)C(=O)O)n1 [Example 24, 4-[2-(4-{(5Sa)-4-[(1R)-1-carboxy-2-(2-{[2-(2-methoxyphenyl)pyrimidin-4-yl]methoxy}phenyl)ethoxy]-6-(4-fluorophenyl)thieno[2,3-d]pyrimidin-5-yl}-2-chloro-3-methylphenoxy)ethyl]-1-{[(2,2-dimethylpropanoyl)oxy]methyl}-1-methylpiperazin-1-ium trifluoroacetate]	2.52	
1.77e-09	COc1ccccc1-c1nccc(COc2ccccc2C[C@@H](Oc2ncnc3sc(-c4ccc(F)cc4)c(-c4ccc(OCCN5CC[N+](C)(COC(=O)C(C)(C)C)CC5)c(Cl)c4Br)c23)C(=O)O)n1 [Example 32, 4-[2-(3-bromo-4-{(5Sa)-4-[(1R)-1-carboxy-2-(2-{[2-(2-methoxyphenyl)pyrimidin-4-yl]methoxy}phenyl)ethoxy]-6-(4-fluorophenyl)thieno[2,3-d]pyrimidin-5-yl}-2-chlorophenoxy)ethyl]-1-{[(2,2-dimethylpropanoyl)oxy]methyl}-1-1-methyl piperazin-1-ium trifluoroacetate]	2.11	
1.36e-09	CCN(CC)C(=O)OC(C)[N+]1(C)CCN(CCOc2ccc(-c3c(-c4ccc(F)cc4)sc4ncnc(OC(Cc5ccccc5OCc5ccnc(-c6ccccc6OC)n5)C(=O)O)c34)c(Br)c2Cl)CC1 [Example 29, 4-[2-(3-bromo-4-{(5Sa)-4-[(1R)-1-carboxy-2-(2-{[2-(2-methoxyphenyl)pyrimidin-4-yl]methoxy}phenyl)ethoxy]-6-(4-fluorophenyl)thieno[2,3-d]pyrimidin-5-yl}-2-chlorophenoxy)ethyl]-1-{1-[(diethylcarbamoyl)oxy]ethyl}-1-methylpiperazin-1-ium trifluoroacetate]	136	
9.48e-10	CCOC(=O)OC[N+]1(C)CCN(CCOc2ccc(-c3c(-c4ccc(F)cc4)sc4ncnc(OC(Cc5ccccc5OCc5ccnc(-c6ccccc6OC)n5)C(=O)O)c34)c(Br)c2Cl)CC1 [Example 26, 4-[2-(3-bromo-4-{(5Sa)-4-[(1R)-1-carboxy-2-(2-{[2-(2-methoxyphenyl)pyrimidin-4-yl]methoxy}phenyl)ethoxy]-6-(4-fluorophenyl)thieno[2,3-d]pyrimidin-5-yl}-2-chlorophenoxy)ethyl]-1-{[(ethoxycarbonyl)oxy]methyl}-1-methylpiperazin-1-ium trifluoroacetate]	2.29	
1.07e-09	COc1ccccc1-c1nccc(COc2ccccc2CC(Oc2ncnc3sc(-c4ccc(F)cc4)c(-c4ccc(OCCN5CC[N+](C)(COC(C)=O)CC5)c(Cl)c4Br)c23)C(=O)O)n1 [Example 25, 1-[(acetyloxy)methyl]-4-[2-(3-bromo-4-{(5Sa)-4-[(1R)-1-carboxy-2-(2-{[2-(2-methoxyphenyl)pyrimidin-4-yl]methoxy}phenyl)ethoxy]-6-(4-fluorophenyl)thieno[2,3-d]pyrimidin-5-yl}-2-chlorophenoxy)ethyl]-1-methylpiperazin-1-ium trifluoroacetate]	1.95	
1.17e-09	CCN(CC)C(=O)OC[N+]1(C)CCN(CCOc2ccc(-c3c(-c4ccc(F)cc4)sc4ncnc(OC(Cc5ccccc5OCc5ccnc(-c6ccccc6OC)n5)C(=O)O)c34)c(Br)c2Cl)CC1 [Example 27, 1-[2-(3-bromo-4-{(5Sa)-4-[(1R)-1-carboxy-2-(2-{[2-(2-methoxyphenyl)pyrimidin-4-yl]methoxy}phenyl)ethoxy]-6-(4-fluorophenyl)thieno[2,3-d]pyrimidin-5-yl}-2-chlorophenoxy)ethyl]-1-{[(diethylcarbamoyl)oxy]methyl}-1-methylpiperazin-1-ium trifluoroacetate]	1900	
9.48e-10	COc1ccccc1-c1nccc(COc2ccccc2C[C@@H](Oc2ncnc3sc(-c4ccc(F)cc4)c(-c4ccc(OCCN5CC[N+](C)(Cc6oc(=O)oc6C)CC5)c(Cl)c4Br)c23)C(=O)O)n1 [Example 30, 4-[2-(3-bromo-4-{(5Sa)-4-[(1R)-1-carboxy-2-(2-{[2-(2-methoxyphenyl)pyrimidin-4-yl]methoxy}phenyl)ethoxy]-6-(4-fluorophenyl)thieno[2,3-d]pyrimidin-5-yl}-2-chlorophenoxy)ethyl]-1-methyl-1-[(5-methyl-2-oxo-1,3-dioxol-4-yl)methyl]piperazin-1-ium trifluoroacetate]	2.81	
